Converted amounts (≈) assume the structure as drawn. Where two headings read alike, the source gives them in different places.
System: MDRAB
Test: MIC determination, microdilution broth method
Format: cell-based, Acinetobacter baumannii
[1] = single use, 20 MDRABs, EA=10% ethanol extract
[2] = single use, 20 MDRABs, EA=water extract
[3] = single use, 20 MDRABs, section of the 95% ethanol extract

Experimental: Determination methods of a Minimal Inhibitory Concentration (MIC) and a Minimum Bactericidal Concentration (MBC) of a test product: the MIC and the MBC of the Pithecellobium clypearia Benth water or ethanol extract to the MDRAB are determined by a microdilution broth method. And it is operated by referring to the microdilution broth method recommended by National Committee for Clinical Laboratory Standards (NCCLS).

CC(C)(O/N=C(\C(=O)N[C@@H]1C(=O)N2C(C(=O)[O-])=C(C[n+]3ccccc3)CS[C@H]12)c1csc(N)n1)C(=O)O [CAZ, Ceftazidime]
MIC (Acinetobacter baumannii, strain A1, EA=P. clypearia 95% ethanol extract, read-out: single-use MIC): 128 µg/mL (≈ 234 µM) | MIC (Acinetobacter baumannii, strain A2, EA=P. clypearia 95% ethanol extract, read-out: single-use MIC): 512 µg/mL (≈ 937 µM) | MIC (Acinetobacter baumannii, strain A3, EA=P. clypearia 95% ethanol extract, read-out: single-use MIC): 512 µg/mL (≈ 937 µM) | MIC (Acinetobacter baumannii, strain A4, EA=P. clypearia 95% ethanol extract, read-out: single-use MIC): 256 µg/mL (≈ 468 µM) | MIC (Acinetobacter baumannii, strain A5, EA=60% ethanol extract, read-out: MIC): 64 µg/mL (≈ 117 µM) | MIC (Acinetobacter baumannii, strain A5, EA=95% ethanol extract, read-out: MIC): 64 µg/mL (≈ 117 µM) | MIC (Acinetobacter baumannii, strain A5, EA=P. clypearia 95% ethanol extract, read-out: single-use MIC): 64 µg/mL (≈ 117 µM) | MIC (Acinetobacter baumannii, strain A5, single use, EA=10% ethanol extract, read-out: MIC): 64 µg/mL (≈ 117 µM) | MIC (Acinetobacter baumannii, strain A5, single use, EA=water extract, read-out: MIC): 64 µg/mL (≈ 117 µM) | MIC (Acinetobacter baumannii, strain A6, EA=60% ethanol extract, read-out: MIC): > 512 µg/mL | MIC (Acinetobacter baumannii, strain A6, EA=95% ethanol extract, read-out: MIC): > 512 µg/mL | MIC (Acinetobacter baumannii, strain A6, EA=P. clypearia 95% ethanol extract, read-out: single-use MIC): 1020 µg/mL (≈ 1870 µM) | MIC (Acinetobacter baumannii, strain A6, single use, EA=10% ethanol extract, read-out: MIC): > 512 µg/mL | MIC (Acinetobacter baumannii, strain A6, single use, EA=water extract, read-out: MIC): > 512 µg/mL | MIC (Acinetobacter baumannii, strain A7, EA=60% ethanol extract, read-out: MIC): > 512 µg/mL | MIC (Acinetobacter baumannii, strain A7, EA=95% ethanol extract, read-out: MIC): > 512 µg/mL | MIC (Acinetobacter baumannii, strain A7, EA=P. clypearia 95% ethanol extract, read-out: single-use MIC): 1020 µg/mL (≈ 1870 µM) | MIC (Acinetobacter baumannii, strain A7, single use, EA=10% ethanol extract, read-out: MIC): > 512 µg/mL | MIC (Acinetobacter baumannii, strain A7, single use, EA=water extract, read-out: MIC): > 512 µg/mL | MIC (Acinetobacter baumannii, strain A8, EA=P. clypearia 95% ethanol extract, read-out: single-use MIC): 512 µg/mL (≈ 937 µM) | MIC (Acinetobacter baumannii, strain A9, EA=P. clypearia 95% ethanol extract, read-out: single-use MIC): 512 µg/mL (≈ 937 µM) | MIC (Acinetobacter baumannii, strain A10, EA=P. clypearia 95% ethanol extract, read-out: single-use MIC): 512 µg/mL (≈ 937 µM) | MIC (Acinetobacter baumannii, strain A11, EA=P. clypearia 95% ethanol extract, read-out: single-use MIC): 512 µg/mL (≈ 937 µM) | MIC (Acinetobacter baumannii, strain A12, EA=P. clypearia 95% ethanol extract, read-out: single-use MIC): 512 µg/mL (≈ 937 µM) | MIC (Acinetobacter baumannii, strain A13, EA=P. clypearia 95% ethanol extract, read-out: single-use MIC): 256 µg/mL (≈ 468 µM) | MIC (Acinetobacter baumannii, strain A14, EA=P. clypearia 95% ethanol extract, read-out: single-use MIC): 512 µg/mL (≈ 937 µM) | MIC (Acinetobacter baumannii, strain A15, EA=P. clypearia 95% ethanol extract, read-out: single-use MIC): 256 µg/mL (≈ 468 µM) | MIC (Acinetobacter baumannii, strain A16, EA=P. clypearia 95% ethanol extract, read-out: single-use MIC): 512 µg/mL (≈ 937 µM) | MIC (Acinetobacter baumannii, strain A17, EA=P. clypearia 95% ethanol extract, read-out: single-use MIC): 256 µg/mL (≈ 468 µM) | MIC (Acinetobacter baumannii, strain A18, EA=P. clypearia 95% ethanol extract, read-out: single-use MIC): 512 µg/mL (≈ 937 µM) | MIC (Acinetobacter baumannii, strain A19, EA=P. clypearia 95% ethanol extract, read-out: single-use MIC): 256 µg/mL (≈ 468 µM) | MIC (Acinetobacter baumannii, strain A20, EA=P. clypearia 95% ethanol extract, read-out: single-use MIC): 512 µg/mL (≈ 937 µM) | MIC50 (Acinetobacter baumannii, single use, 20 MDRABs, section of the 60% ethanol extract, read-out: MIC50): 512 µg/mL (≈ 937 µM) | MIC90 (Acinetobacter baumannii, single use, 20 MDRABs, section of the 60% ethanol extract, read-out: MIC90): 512 µg/mL (≈ 937 µM) | MIC50 (MDRABs, EA=60% ethanol extract): 512 µg/mL (≈ 937 µM) | MIC90 (MDRABs, EA=60% ethanol extract): 512 µg/mL (≈ 937 µM) | MIC Range (MDRABs, EA=60% ethanol extract): 64 to 512 µg/mL | MIC50 (MDRABs, EA=95% ethanol extract): 512 µg/mL (≈ 937 µM) | MIC90 (MDRABs, EA=95% ethanol extract): 512 µg/mL (≈ 937 µM) | MIC Range (MDRABs, EA=95% ethanol extract): 64 to 512 µg/mL | MIC50 [1]: 512 µg/mL (≈ 937 µM) | MIC90 [1]: 512 µg/mL (≈ 937 µM) | MIC Range [1]: 64 to 512 µg/mL | MIC50 [2]: 512 µg/mL (≈ 937 µM) | MIC90 [2]: 512 µg/mL (≈ 937 µM) | MIC Range [2]: 64 to 512 µg/mL | MIC50 [3]: 512 µg/mL (≈ 937 µM) | MIC90 [3]: 512 µg/mL (≈ 937 µM) | MIC (strain A6, single use, EA=10% ethanol extract): 1024 µg/mL (≈ 1870 µM) | MIC (strain A6, single use, EA=water extract): 1024 µg/mL (≈ 1870 µM) | MIC (strain A7, single use, EA=10% ethanol extract): 1024 µg/mL (≈ 1870 µM) | MIC (strain A7, single use, EA=water extract): 1024 µg/mL (≈ 1870 µM)

From patent US11793849B2, “Method of Chinese herbal medicine extract used for treating multiple diseases caused by drug resistant bacteria infection” (priority 2016, dated 2023)
